The values below come from patent US8637672B2 (Deciphera Pharmaceuticals, LLC, priority 2010, dated 2014).

Like-named read-outs stand apart in the source and are kept apart here. A value given as a limit tells only on which side of the number the result lay.

Assay [1] deals with T1, RON kinase (Homo sapiens, UniProt Q04912).
T1 construct: GST tagged recombinant human RON, amino acids 983-1400; GST; host or cells: insect cells
T1 sequence (Q04912 983-1400): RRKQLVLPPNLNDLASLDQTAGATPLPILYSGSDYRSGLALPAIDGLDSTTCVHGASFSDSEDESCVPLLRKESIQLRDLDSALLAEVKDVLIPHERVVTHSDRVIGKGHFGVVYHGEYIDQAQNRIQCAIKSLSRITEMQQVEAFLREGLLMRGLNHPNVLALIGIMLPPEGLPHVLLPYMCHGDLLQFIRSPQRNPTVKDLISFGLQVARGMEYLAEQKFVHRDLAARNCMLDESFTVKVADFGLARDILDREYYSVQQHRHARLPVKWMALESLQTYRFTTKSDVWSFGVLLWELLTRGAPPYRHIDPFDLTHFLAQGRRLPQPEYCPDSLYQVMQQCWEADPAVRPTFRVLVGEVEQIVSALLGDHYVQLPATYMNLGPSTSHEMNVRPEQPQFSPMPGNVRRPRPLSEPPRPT
In words: RON Kinase Assay. It counts as biochemical. Particulars: for IC50: methods of the Biological Data section; for Fold Selectivity RON/MET: ratio RON IC50 / MET IC50. On the procedure: Activity of RON kinase was determined by a radioactive filtration binding assay where incorporation of ^33P from ^33P-γ-ATP to the substrate was measured. In this assay, detection of ^33P was indicative of RON phosphorylation activity which was directly proportional to the amount of phosphorylated peptide substrate ([…], SEQ ID NO: 4). Initially, the reaction mixture contained: 400 nM RON, 20 mM HEPES, pH 7.5, 10 mM MgCl2, 2 mM MnCl2, 1 mM EGTA, 0.02% Brij 35, 0.02 mg/mL BSA, 0.1 mM Na3VO4, and 2 mM DTT. The reaction mixture was incubated with compound at room temperature for 30 minutes. To initiate the reaction, an equal volume of 20 μM ATP and 0.4 mg/mL peptide substrate were added and then incubated at room temperature for 2 hours. The final assay conditions were: 200 nM RON, 10 μM ATP, 0.2 mg/mL substrate 20 mM HEPES, pH 7.5, 10 mM MgCl2, 1 mM EGTA, 0.02% Brij 35, 0.02 mg/mL BSA, 0.1 mM Na3VO4, 2 mM DTT, and 1% DMSO. IC50 values were calculated from a series of % Activity values determined at a range of inhibitor concentrations using software routines as implemented in the GraphPad Prism software package.
GST tagged recombinant human RON, amino acids 983-1400. Expressed in insect cells.

Assay [2] has as its target T1, RON kinase. The conditions noted are these: values published in the '188/'556 applications; cited from earlier work.
A further assay concerns the target VEGFR-2 (KDR kinase) (Homo sapiens, UniProt P35968, DEL940-989/E990V). Particulars: values published in the '188/'556 applications; cited from earlier work.
The next assay addresses T2, c-MET kinase (Homo sapiens, UniProt P08581).
T2 construct: His6 with TEV-site leader (N); purchased Invitrogen PV3143
Particulars: values published in the '188 application (pp. 96-97); cited from earlier work.

Chain of VEGFR-2 (KDR kinase) (P35968 with tags, fused parts or gaps DEL940-989/E990V): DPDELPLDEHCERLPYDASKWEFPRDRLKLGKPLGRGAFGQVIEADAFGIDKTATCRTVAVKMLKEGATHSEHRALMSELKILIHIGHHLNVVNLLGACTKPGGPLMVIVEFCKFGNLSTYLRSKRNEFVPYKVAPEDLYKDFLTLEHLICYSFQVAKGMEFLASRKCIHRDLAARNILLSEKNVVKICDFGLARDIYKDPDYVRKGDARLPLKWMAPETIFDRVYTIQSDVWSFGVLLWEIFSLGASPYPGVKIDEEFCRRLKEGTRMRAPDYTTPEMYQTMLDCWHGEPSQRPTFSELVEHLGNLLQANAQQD
T2 sequence (P08581 with tags, fused parts or gaps): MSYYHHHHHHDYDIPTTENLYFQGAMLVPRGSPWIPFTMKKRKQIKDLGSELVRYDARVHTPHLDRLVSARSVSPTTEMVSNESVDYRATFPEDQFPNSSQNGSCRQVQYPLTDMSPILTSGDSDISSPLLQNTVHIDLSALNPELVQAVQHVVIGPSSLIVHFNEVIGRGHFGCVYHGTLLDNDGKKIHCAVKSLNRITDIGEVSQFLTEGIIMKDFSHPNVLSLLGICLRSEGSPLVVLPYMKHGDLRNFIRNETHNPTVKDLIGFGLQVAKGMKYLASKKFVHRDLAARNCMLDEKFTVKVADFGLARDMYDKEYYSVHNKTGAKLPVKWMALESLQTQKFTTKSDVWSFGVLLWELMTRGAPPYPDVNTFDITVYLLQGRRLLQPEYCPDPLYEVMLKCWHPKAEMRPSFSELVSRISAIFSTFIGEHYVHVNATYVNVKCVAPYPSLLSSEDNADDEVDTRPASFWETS

The term IC50 denotes the midpoint of a concentration-inhibition curve. For the compound `CC(=O)Nc1cc(Oc2ccc(NC(=O)C3(C(=O)Nc4ccc(F)cc4)CC3)c(F)c2)ccn1` [Compound E, N-(4-(2-acetamidopyridin-4-yloxy)-2-fluorophenyl)-N′-(4-fluorophenyl)cyclopropane-1,1-dicarboxamide], on RON kinase [1], the IC50 is 100 nM and the “Fold Selectivity RON/MET” value was determined as 3.85.

On to `CC(=O)Nc1cc(Oc2cc(F)c(NC(=O)C3(C(=O)Nc4ccc(F)cc4)CC3)cc2F)ccn1` [Compound D, N-(4-(2-acetamidopyridin-4-yloxy)-2,5-difluorophenyl)-N′-(4-fluorophenyl)cyclopropane-1,1-dicarboxamide], for which, on RON kinase [1], the IC50 was ≥ 5000 nM and the “Fold Selectivity RON/MET” value was >1,250.

For `O=C(Nc1cc(Oc2cc(F)c(NC(=O)C3(C(=O)Nc4ccc(F)cc4)CC3)cc2F)ccn1)N1CC(CO)C1` [Compound H], the IC50 was 3 nM on RON kinase [2], 10 nM at VEGFR-2 (KDR kinase) and 4 nM at c-MET kinase. The “Fold Selectivity RON/MET” value at RON kinase [1] amounted to 0.75.

`CN1CCN(C2CCN(C(=O)Nc3cc(Oc4cc(F)c(NC(=O)C5(C(=O)Nc6ccc(F)cc6)CC5)cc4F)ccn3)CC2)CC1` [Compound G]: the IC50 is 2 nM at RON kinase [2], 100 nM on VEGFR-2 (KDR kinase) and 53 nM on c-MET kinase. Moreover, at RON kinase [1], the “Fold Selectivity RON/MET” value came out at 0.04.
